This note sets out measurements from ChEMBL document CHEMBL1132025, “Macrocyclic hexapeptide analogues of the thrombin receptor (PAR-1) activation motif SFLLRN” (Bioorg Med Chem Lett, 1999).

Assay [1] deals with Proteinase-activated receptor 1 (Homo sapiens) (UniProt P25116). Kind of assay: In vitro antagonist activity to inhibit human platelet aggregation (gel-filtered platelets) induced by human thrombin at a concentration of 50 uM.
Assay [2] is filed under the species Homo sapiens. Kind of assay: Agonist activity to activate human platelet aggregation (gel-filtered platelets) at a concentration of 100 uM; Not active. It counts as functional.
Assay [3] is filed under the species Homo sapiens. Kind of assay: (§1) Agonist activity to activate human platelet aggregation (gel-filtered platelets) at a concentration of 50 uM. In kind it is functional.
For assay [4], the species on record is Homo sapiens. The assay is described as §1. In kind it is functional, organism-based.

Numbered stars: 1 amine (or outer) side, 2 acyl side, 3 side chain; on linkers, the order of the positions; unused ones are H or OH. Bridge positions count the residues as written; N and C are the ends. Square brackets hold non-standard residues; d marks the D form. Peptide text beside a SMILES is read from it. Phe(3-F) = N[C@@H](Cc1cccc(F)c1)C(=O)O; Phe(4-F) = N[C@@H](Cc1ccc(F)cc1)C(=O)O; X1 = O=C(CCCN[*:2])[*:1]; GABA = NCCCC(=O)O; βAla = NCCC(=O)O

On to `CC(C)C[C@@H]1NC(=O)[C@@H](NC(=O)[C@@H](CCc2ccccc2)NC(=O)[C@@H](N)CO)CCCCNC(=O)C[C@@H](C(N)=O)NC(=O)[C@H](Cc2ccccc2)NC1=O`, for which the inhibition in assay [1] came out at 2%. Further, the EC50 result in assay [2] was “Not Active”. As for `CC(C)C[C@@H]1NC(=O)[C@@H](NC(=O)[C@H](Cc2cccc(F)c2)NC(=O)CN)CCCCNC(=O)C[C@@H](C(N)=O)NC(=O)[C@H](CCCN=C(N)N)NC1=O` (H-G[Phe(3-F)]KLRD-NH2; lactam 3-6), in assay [3], the Aggregation came out at 6%. In assay [1], this compound gave an inhibition of 10%. Regarding `CC(C)C[C@@H]1NC(=O)[C@@H](NC(=O)[C@H](Cc2ccccc2)NC(=O)CN)CCCCNC(=O)C[C@@H](C(N)=O)NC(=O)[C@H](CCCN=C(N)N)NC1=O` (H-GFKLRD-NH2; lactam 3-6), in assay [3], the Aggregation was found to be 15%. Moreover, the inhibition in assay [1] turned out to be 9%.

Take `CC(C)C[C@@H]1NC(=O)[C@@H](NC(=O)[C@H](Cc2cccc(F)c2)NC(=O)CN)CCCCNC(=O)C[C@@H](C(N)=O)NC(=O)[C@H](Cc2ccccc2)NC1=O` (H-G[Phe(3-F)]KLFD-NH2; lactam 3-6): the EC50 in assay [4] turned out to be 63 µM. Moreover, the inhibition in assay [1] is 11%. For the compound `CC(C)C[C@@H]1NC(=O)[C@@H](NC(=O)[C@H](Cc2ccccc2)NC(=O)CCN)CCCCNC(=O)C[C@@H](C(N)=O)NC(=O)[C@H](CCCN=C(N)N)NC1=O` (H-[βAla]FKLRD-NH2; lactam 3-6), the Aggregation in assay [3] is listed as 7%. Also, the inhibition in assay [1] was found to be 3%. Compound `CC(C)C[C@@H]1NC(=O)[C@@H](NC(=O)[C@H](Cc2ccccc2)NC(=O)[C@H](C)N)CCCCNC(=O)C[C@@H](C(N)=O)NC(=O)[C@H](CCCN=C(N)N)NC1=O` (H-AFKLRD-NH2; lactam 3-6) came in with an EC50 in assay [4] of 66 µM. For the same compound, the inhibition in assay [1] came out at 2%. With `CC(C)C[C@@H]1NC(=O)[C@@H](NC(=O)[C@@H](CCc2ccccc2)NC(=O)CCN)CCCCNC(=O)C[C@@H](C(N)=O)NC(=O)[C@H](Cc2ccccc2)NC1=O`, the half-maximal effective concentration (EC50) in assay [4] came to 43 µM. The compound further displayed an inhibition in assay [1] of 16%.

In assay [3], `CC(C)C[C@@H]1NC(=O)[C@@H](NC(=O)[C@H](Cc2ccccc2)NC(=O)CCCN)CCCCNC(=O)C[C@@H](C(N)=O)NC(=O)[C@H](CCCN=C(N)N)NC1=O` (H-[GABA]FKLRD-NH2; lactam 3-6) displayed an Aggregation of 6%. Also, the inhibition in assay [1] came out at 6%. For `CC(C)C[C@@H]1NC(=O)[C@@](C)(NC(=O)[C@@H](Cc2ccccc2)NC(=O)CN)CCCCNC(=O)CCCNC(=O)C[C@@H](C(N)=O)NC(=O)[C@H](CCCN=C(N)N)NC1=O`, the 50% effective concentration (EC50) in assay [4] is 30 µM. In assay [1], this compound returned an inhibition of 44%.

In turn, `CC(C)C[C@@H]1NC(=O)[C@H](CC(C)C)NC(=O)[C@H](Cc2ccccc2)NC(=O)[C@@H](N)CCCCNC(=O)CCCNC(=O)C[C@@H](C(N)=O)NC(=O)[C@H](CCCN=C(N)N)NC1=O` (H-KFLLRD-NH2; linker 1-6 via X1) gave an Aggregation in assay [3] of 5%. The same compound came in with an inhibition in assay [1] of 52%. In assay [1], `CC(C)C[C@@H]1NC(=O)[C@@H](NC(=O)[C@@H](Cc2ccccc2)NC(=O)CCN)CCCCNC(=O)C[C@@H](C(N)=O)NC(=O)[C@H](Cc2ccccc2)NC1=O` registered an inhibition of 11%. Also, the EC50 entry in assay [2] is “Not Active”. Compound `CC(C)C[C@@H]1NC(=O)[C@@H](NC(=O)[C@H](Cc2cccc(F)c2)NC(=O)CCCN)CCCCNC(=O)C[C@@H](C(N)=O)NC(=O)[C@H](CCCN=C(N)N)NC1=O` (H-[GABA][Phe(3-F)]KLRD-NH2; lactam 3-6) yielded an Aggregation in assay [3] of 6%. For the same compound, the inhibition in assay [1] was 2%. The matching figures for `CC(C)C[C@@H]1NC(=O)[C@@H](NC(=O)[C@@H](CCc2ccccc2)NC(=O)[C@@H](N)CO)CCCCNC(=O)C[C@@H](C(N)=O)NC(=O)[C@H](CCCN=C(N)N)NC1=O`: 16% and 5%. `CC(C)C[C@@H]1NC(=O)[C@@H](NC(=O)[C@H](Cc2ccccc2)NC(=O)[C@@H](N)CO)CCCCNC(=O)C[C@@H](C(N)=O)NC(=O)[C@H](Cc2ccccc2)NC1=O` (H-SFKLFD-NH2; lactam 3-6) registered an inhibition in assay [1] of 12%. The EC50 entry in assay [2] is “Not Active”. In assay [3], `CC(C)C[C@@H]1NC(=O)[C@@H](NC(=O)[C@@H](CCc2ccccc2)NC(=O)CCN)CCCCNC(=O)C[C@@H](C(N)=O)NC(=O)[C@H](CCCN=C(N)N)NC1=O` registered an Aggregation of 7%. In addition, the inhibition in assay [1] was determined as 1%.

`CC(C)C[C@@H]1NC(=O)[C@@H](NC(=O)[C@H](Cc2cccc(F)c2)NC(=O)CCN)CCCCNC(=O)C[C@@H](C(N)=O)NC(=O)[C@H](Cc2ccccc2)NC1=O` (H-[βAla][Phe(3-F)]KLFD-NH2; lactam 3-6) yielded an inhibition in assay [1] of 24%. In addition, the concentration for a half-maximal effect (EC50) result in assay [2] is recorded as “Not Active”. The corresponding values for `CC(C)C[C@@H]1NC(=O)[C@@H](NC(=O)[C@H](Cc2cccc(F)c2)NC(=O)CCCN)CCCCNC(=O)C[C@@H](C(N)=O)NC(=O)[C@H](Cc2ccccc2)NC1=O` (H-[GABA][Phe(3-F)]KLFD-NH2; lactam 3-6) are 27% and “Not Active”. `CC(C)C[C@@H]1NC(=O)[C@@H](NC(=O)[C@H](Cc2ccc(F)cc2)NC(=O)CN)CCCCNC(=O)C[C@@H](C(N)=O)NC(=O)[C@H](CCCN=C(N)N)NC1=O` (H-G[Phe(4-F)]KLRD-NH2; lactam 3-6) registered an EC50 in assay [4] of 60 µM. In addition, in assay [1], the inhibition stood at 14%. For `CC(C)C[C@@H]1NC(=O)[C@@H](NC(=O)[C@H](Cc2ccccc2)NC(=O)CCCN)CCCCNC(=O)C[C@@H](C(N)=O)NC(=O)[C@H](Cc2ccccc2)NC1=O` (H-[GABA]FKLFD-NH2; lactam 3-6), the inhibition in assay [1] came out at 14%. In assay [2], the EC50 result is on record as “Not Active”.

For `CC(C)C[C@@H]1NC(=O)[C@@H](NC(=O)[C@H](Cc2cccc(F)c2)NC(=O)CCN)CCCCNC(=O)C[C@@H](C(N)=O)NC(=O)[C@H](CCCN=C(N)N)NC1=O` (H-[βAla][Phe(3-F)]KLRD-NH2; lactam 3-6), the Aggregation in assay [3] is 7%. Further, the inhibition in assay [1] worked out at 3%.

In turn, `CC(C)C[C@@H]1NC(=O)[C@@H](NC(=O)[C@H](Cc2ccccc2)NC(=O)[C@@H](N)CO)CCCCNC(=O)C[C@@H](C(N)=O)NC(=O)[C@H](CCCN=C(N)N)NC1=O` (H-SFKLRD-NH2; lactam 3-6) came in with an Aggregation in assay [3] of 16%. For the same compound, the inhibition in assay [1] came to 13%. For the compound `CC(C)C[C@H](NC(=O)[C@H](CC(C)C)NC(=O)[C@H](Cc1ccccc1)NC(=O)[C@@H](N)CO)C(=O)N[C@@H](CCCN=C(N)N)C(=O)N[C@@H](CC(N)=O)C(N)=O`, in assay [4], the response was half-maximal at 0.8 µM (EC50). This counts as sub-micromolar. For `CC(C)C[C@@H]1NC(=O)[C@@H](NC(=O)[C@@H](CCc2ccccc2)NC(=O)CN)CCCCNC(=O)C[C@@H](C(N)=O)NC(=O)[C@H](Cc2ccccc2)NC1=O`, the inhibition in assay [1] turned out to be 1%. Moreover, the EC50 entry in assay [2] was “Not Active”. With `CC(C)C[C@@H]1NC(=O)[C@@H](NC(=O)[C@@H](CCc2ccccc2)NC(=O)CN)CCCCNC(=O)C[C@@H](C(N)=O)NC(=O)[C@H](CCCN=C(N)N)NC1=O`, the Aggregation in assay [3] is 5%. In addition, the inhibition in assay [1] was 2%. The corresponding values for `CC(C)C[C@@H]1NC(=O)[C@H](CC(C)C)NC(=O)[C@H](Cc2ccccc2)NC(=O)[C@@H](N)CCCCNC(=O)C[C@@H](C(N)=O)NC(=O)[C@H](CCCN=C(N)N)NC1=O` (H-KFLLRD-NH2; lactam 1-6) are 6% and 3%. Take `CC(C)C[C@@H]1NC(=O)[C@@H](NC(=O)[C@H](Cc2cccc(F)c2)NC(=O)[C@@H](N)CO)CCCCNC(=O)C[C@@H](C(N)=O)NC(=O)[C@H](Cc2ccccc2)NC1=O` (H-S[Phe(3-F)]KLFD-NH2; lactam 3-6): in assay [1], the inhibition was 23%. Moreover, in assay [2], the 50% effective concentration (EC50) entry is “Not Active”. `CC(C)C[C@@H]1NC(=O)[C@@H](NC(=O)[C@H](Cc2cccc(F)c2)NC(=O)[C@@H](N)CO)CCCCNC(=O)C[C@@H](C(N)=O)NC(=O)[C@H](CCCN=C(N)N)NC1=O` (H-S[Phe(3-F)]KLRD-NH2; lactam 3-6) gave an Aggregation in assay [3] of 12%. Also, the inhibition in assay [1] worked out at 5%. The compound `CC(C)C[C@@H]1NC(=O)[C@@H](NC(=O)[C@@H](CCc2ccccc2)NC(=O)CCCN)CCCCNC(=O)C[C@@H](C(N)=O)NC(=O)[C@H](Cc2ccccc2)NC1=O` returned an EC50 in assay [4] of 37 µM. Further, in assay [1], the inhibition is 15%. The corresponding values for `CC(C)C[C@@H]1NC(=O)[C@@H](NC(=O)[C@H](Cc2ccccc2)NC(=O)CN)CCCCNC(=O)C[C@@H](C(N)=O)NC(=O)[C@H](Cc2ccccc2)NC1=O` (H-GFKLFD-NH2; lactam 3-6) are 24 µM and 23%. In the case of `CC(C)C[C@@H]1NC(=O)[C@@H](NC(=O)[C@@H](CCc2ccccc2)NC(=O)CCCN)CCCCNC(=O)C[C@@H](C(N)=O)NC(=O)[C@H](CCCN=C(N)N)NC1=O`, the Aggregation in assay [3] is 8%. In addition, the inhibition in assay [1] was found to be 2%.

As usually defined, the inhibition is the share of the control response that was lost under treatment. Higher therefore signals strong suppression. As a reminder, the EC50 is the concentration needed to bring the measured effect to its halfway point.
